Test results: EPA's ToxValDB 9.5
Where “and” joins values, the source holds several entries; their conditions need not be identical. Identical values can stand only once.

Experiments:
Mus musculus [1] = details: oral
Mus musculus [2] = details: developmental; duration: 1 days; oral; gavage; M/F; NMRI; developmental
Rattus norvegicus [3] = details: subchronic
Mus musculus [4] = details: reproduction developmental, oral, generation: P0
Rattus norvegicus [5] = details: developmental, oral, gavage, generation: F1
Rattus norvegicus [6] = details: oral
Rattus norvegicus [7] = details: chronic, oral
Rattus norvegicus [8] = details: Hershberger; duration: 10 days; oral; gavage; Sprague-Dawley; active + Negative + Antiandrogenic + anti-androgenic + significant decrease in serum testosterone at 800 (49% decrease at 400 NS) / …
Rattus norvegicus [9] = details: oral; remark: listed apart in the source
Rattus norvegicus [10] = details: oral; remark: listed apart in the source
Rattus norvegicus [11] = details: repeat dose other; oral
[12] = developmental, duration: 2 years, diet, M/F, reduced body weight gain, reduced pup weight and parental food consumption
[13] = developmental, M/F, reduced pup weight and parental food consumption
[14] = subchronic, gavage, M, Induction of hepatic enzymes + liver histopathology
[15] = subchronic, M/F, hypoactivity and ataxia
[16] = subchronic, duration: 90 days, M/F, reduced body weight and neurotoxicity

Brc1c(Br)c(Br)c(Oc2c(Br)c(Br)c(Br)c(Br)c2Br)c(Br)c1Br [2,2',3,3',4,4',5,5',6,6'-Decabromodiphenyl ether]
LOAEL (Mus musculus [1]; developmental, gavage, M, neurobehavioral effects): 20.1 mg/kg-day
NOAEL (Mus musculus [1]; developmental, gavage, neurobehavioral effects): 2.22 mg/kg-day
NOAEL (Mus musculus [2]): 1.34 mg/kg-day
LOAEL (Rattus norvegicus [3]; duration: 8 weeks, oral, gavage, M, Sprague-Dawley, endocrine): 0.05 mg/kg-day
LOEL (Mus musculus [4]; M/F, C57BL/6, P0: Operant test (fixed interval schedule, index of curvature, last block) + P0: Operant test (fixed interval schedule, index of curvature, …): 6 mg/kg-day
LOEL (Mus musculus [4]; M/F, C57BL/6, P0: Operant test (fixed interval schedule, overall response rate, first block) + P0: Operant test (fixed interval schedule, overall response…): 20 mg/kg-day
LOEL (Mus musculus [4]; M, Apoe3, P0: Morris water maze (swim distance in target quadrant)): 10 mg/kg-day
LOEL (Mus musculus [4]; M, Swiss Albino, P0: Morris water maze (latency, last trial) + P0: Morris water maze (latency, significant trial) + P0: Morris water maze (time spent in …): 20 mg/kg-day
LOEL (Rattus norvegicus [5]; M/F, Crl:CD(SD), F1: Water T maze (learning error)): 1000 mg/kg-day
LOEL (Rattus norvegicus [5]; M, Sprague-Dawley, F1: Morris water maze (latency, last trial) + F1: Morris water maze (latency, significant trial)): 30 mg/kg-day
NOEL (Rattus norvegicus [6]; chronic, duration: 2 years, diet, Liver: Increased weight): 1 mg/kg-day

O=C(NC(=O)c1c(F)cccc1F)Nc1cc(Cl)c(OC(F)(F)C(F)C(F)(F)F)cc1Cl (stereo not given) [Lufenuron]
NOAEL (Rattus norvegicus [7]; duration: 2 years, Tonic-clonic seizures, histopathological effects on lungs, liver, non-glandular stomach, intestines and urinary tract.): 1.93 mg/kg-day

CCc1cccc(C)c1N(C(=O)CCl)C(C)COC (stereo not given) [Metolachlor]
LOEL (Rattus norvegicus [8]): 800 mg/kg-day and 500 mg/kg-day
NOEL (Rattus norvegicus [8]): 400 mg/kg-day and 300 mg/kg-day
LEL (Rattus norvegicus [9]; [12]): 150 mg/kg-day
NOEL (Rattus norvegicus [9]; [12]): 15 mg/kg-day
LEL (Rattus norvegicus [9]; [13]): 50 mg/kg-day
NOEL (Rattus norvegicus [9]; [13]): 15 mg/kg-day
NOAEL (Rattus norvegicus [6]; chronic, duration: 2 years, diet, Whole body: Decreased weight gain): 23.4 mg/kg-day

OCC(O)CCl (stereo not given) [3-Chloro-1,2-propanediol]
LOEL (Rattus norvegicus [7]; drinking water, Fischer 344, Kidney proximule tubule hyperplasia): 1.1 mg/kg-day

Brc1cc(Oc2cc(Br)c(Br)c(Br)c2Br)c(Br)c(Br)c1Br [Octabromodiphenyl ether]
LOAEL (Rattus norvegicus [9]; [14]): 5 mg/kg-day
NOAEL (Rattus norvegicus [9]; [14]): 2.51 mg/kg-day
NOAEL (Rattus norvegicus [3]; duration: 13 weeks, inhalation, nose only, M/F, Crl:CD(SD) BR, endocrine): 1.1 mg/m3
NOAEL (Rattus norvegicus [6]; subchronic, duration: 90 days, gavage, Liver: Histological changes): 2.5 mg/kg-day

[Cr+3] [Chromium (III)]
LOAEL (Rattus norvegicus [3]; duration: 13 weeks, inhalation, nose only, M/F, Fisher 344/Crl BR VAF/Plus, respiratory): 3 mg/m3
NOEL (% CrO3) (Rattus norvegicus [6]; chronic, duration: 840 days, diet, None Observed): 5

CC(C)CO [2-Methyl-1-propanol]
NOAEL (Rattus norvegicus [10]; subchronic, duration: 90 days, gavage, M/F, CD, Deaths + Clinical Observation: Hypoactivity Ataxia Salivation Labored respiration Rales Prostration Hypothermia Emaciation + Body Weight …): 316 mg/kg-day
NOAEL (Rattus norvegicus [10]; subchronic, drinking water, Wistar): 2430 mg/kg-day
LOAEL (Rattus norvegicus [9]; [15]): 1000 mg/kg-day
NOEL (Rattus norvegicus [9]; [15]): 316 mg/kg-day
NOEL (Rattus norvegicus [6]; subchronic, duration: 13 weeks, gavage, Nervous system: Ataxia + Nervous system: Hypoactivity): 316 mg/kg-day

Nc1cc(Cl)cc(C(=O)O)c1Cl [Chloramben]
LEL (Mus musculus [1]; chronic, duration: 18 months, diet, M/F, CD1, hepatocyte degeneration): 15 mg/kg-day

Cc1cccc(O)c1 [m-Cresol]
NOAEL (Rattus norvegicus [10]; short-term, duration: 28 days, diet, M/F, Fischer 344, Body Weight Changes: Mean body weight decrease, Body weight gain decrease + Food Consumption: decrease + Absolute Organ Weight: Brain …): 3000 ppm
NOAEL (Rattus norvegicus [10]; subchronic, duration: 13 weeks, gavage, M/F, Sprague-Dawley, Deaths + Clinical Observation: Lethargy Tremors Hunched posture Rough hair coats + Body Weight Changes: Mean body weight decrease, Body …): 50 mg/kg-day
LOAEL (Rattus norvegicus [9]; [16]): 150 mg/kg-day
NOAEL (Rattus norvegicus [9]; [16]): 50 mg/kg-day
NOAEL (Rattus norvegicus [6]; subchronic, duration: 90 days, gavage, Nervous system: Neurotoxicity + Whole body: Decreased weight gain): 50 mg/kg-day

CO[C@H]1C[C@H](O[C@@H]2/C(C)=C/C[C@@H]3C[C@@H](C[C@]4(CC[C@H](C)[C@@H](C5CCCCC5)O4)O3)OC(=O)[C@@H]3C=C(C)/C(=N/O)[C@H]4OC/C(=C\C=C\[C@@H]2C)[C@]43O)O[C@@H](C)[C@@H]1O [Selamectin]
NOAEL (Rattus norvegicus [7]; duration: 1 years, Increased liver and uterus/cervix weights): 5 mg/kg-day

Clc1cc2c(oc3cc(Cl)c(Cl)c(Cl)c32)c(Cl)c1Cl [1,2,3,6,7,8-Hexachlorodibenzofuran]
LOAEL (Rattus norvegicus [11]): 0.0016 mg/kg-day
NOAEL (Rattus norvegicus [11]): 0.00016 mg/kg-day
